From EP2945947B1, “INHIBITING THE TRANSIENT RECEPTOR POTENTIAL A1 ION CHANNEL” (Merck Sharp & Dohme Corp., priority 2013, dated 2014)
Values after ≈ are worked out from the molar mass of the structure shown. Like-named read-outs stand apart in the source and are kept apart here. Marks after values point to notes of the source that are not given here. Values belong to the compound of their own block, whether it stands above or below them.

Key:
human TRPA1 = human TRPA1 (Homo sapiens, UniProt O75762); test: Inhibition of the TRPA1 ion channel, whole cell patch configuration (Example 1); type: cell-based; conditions: current activation 10 µM AITC, read-out: Human TRPA1 IC50 Inward Current
Chain of human TRPA1 (O75762 whole entry): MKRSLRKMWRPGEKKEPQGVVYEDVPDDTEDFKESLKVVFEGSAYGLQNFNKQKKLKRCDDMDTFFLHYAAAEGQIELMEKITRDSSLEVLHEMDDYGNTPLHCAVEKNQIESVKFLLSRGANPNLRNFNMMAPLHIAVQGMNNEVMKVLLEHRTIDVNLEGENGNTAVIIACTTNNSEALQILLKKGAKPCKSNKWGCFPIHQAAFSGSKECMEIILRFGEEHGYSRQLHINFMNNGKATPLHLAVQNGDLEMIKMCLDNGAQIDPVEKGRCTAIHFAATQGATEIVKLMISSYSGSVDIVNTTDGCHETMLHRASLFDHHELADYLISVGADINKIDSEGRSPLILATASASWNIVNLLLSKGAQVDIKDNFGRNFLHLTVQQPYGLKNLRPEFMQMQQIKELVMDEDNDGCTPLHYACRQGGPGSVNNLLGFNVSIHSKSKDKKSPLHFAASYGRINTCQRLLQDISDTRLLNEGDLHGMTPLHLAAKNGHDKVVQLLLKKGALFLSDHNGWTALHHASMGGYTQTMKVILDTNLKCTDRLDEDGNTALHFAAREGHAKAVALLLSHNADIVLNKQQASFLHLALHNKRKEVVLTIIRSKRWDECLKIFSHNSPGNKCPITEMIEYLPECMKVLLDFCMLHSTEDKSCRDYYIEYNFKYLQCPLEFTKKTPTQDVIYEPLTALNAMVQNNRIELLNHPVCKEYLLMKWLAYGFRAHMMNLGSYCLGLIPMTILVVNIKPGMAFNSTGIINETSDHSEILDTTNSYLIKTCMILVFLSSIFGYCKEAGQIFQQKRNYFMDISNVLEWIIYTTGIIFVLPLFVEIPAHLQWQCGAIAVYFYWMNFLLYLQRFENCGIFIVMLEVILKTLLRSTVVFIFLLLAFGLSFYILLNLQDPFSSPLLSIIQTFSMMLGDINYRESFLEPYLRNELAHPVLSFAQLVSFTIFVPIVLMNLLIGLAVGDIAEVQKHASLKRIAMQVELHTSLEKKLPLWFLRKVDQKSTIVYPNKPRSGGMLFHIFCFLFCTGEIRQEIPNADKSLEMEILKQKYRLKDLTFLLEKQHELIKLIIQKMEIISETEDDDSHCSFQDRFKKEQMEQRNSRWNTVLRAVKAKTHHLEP
Description: Compounds of Formula (Ia) inhibit the TRPA1 channel, as measured using the method of Example 1. […] Data for TRPA1 inhibition and for TRPA1 selectivity was obtained by this method for the indicated compounds of Formula (Ia), with the relevant data included in Tables 1a - f below. All currents were recorded in whole-cell configuration using EPC-9 and EPC-10 amplifiers and Patchmaster software (HEKA). […] The standard pipette solution consisted of 140mM CsAsp, 10 mM EGTA, 10 mM HEPES, 2.27 mM MgCl2, 1.91 mM CaCl2, 4 mM MgATP, and 0.1-0.3 mM Na2GTP, with pH adjusted to 7.2 with CsOH. In addition, a solution containing 145 mM CsCl, 10 mM HEPES, 10 mM EGTA and 1 mM MgCl2 (pH 7.2 adjusted with CsOH) can be used. The standard bath solution contained 150 mM NaCl, 10 mM HEPES, 10 mM glucose, 4.5 mM KCl, 1 mM EGTA, 3 mM MgCl2, with pH adjusted to 7.4 with NaOH. In some instances, 2 mM CaCl2 was added in place of EGTA and the concentration of MgCl2 was reduced to 1 mM.
Data were collected either by continuous recordings at -60 mV or by applying voltage ramps from a holding potential of 0 mV every 4 s. Continuous recordings were collected at 400 Hz and digitally filtered off-line at 10 Hz for presentation. Voltage ramps were applied from - 100 mV to 100 mV over the course of 400 ms, and data were collected at 10 kHz and filtered at 2.9 kHz. Inward and outward currents were analyzed from the ramps at -80 and 80 mV, respectively. Liquid junction potential correction was not used.
Solutions were switched using a gravity-fed continuous focal perfusion system. To achieve rapid temperature changes, two temperature control, and perfusion systems were employed simultaneously. For temperatures ≥ 22°C, a Warner Instruments bipolar temperature controller (TC-344B) and inline heater (SHM-8) were used. […] Temperatures were confirmed using a thermistor (Warner Instruments, TA-29), with temperatures at the recorded cell estimated to be within +/- 2°C of those reported.
The antagonist effects of compounds of Formula (Ia) against human TRPA1 ("hTRPA1") and for some compounds rat TRPA1 ("rTRPA1") in a whole cell patch configuration were evaluated using the in vitro assay described above. The current activation tested was 10 µM AITC, and the tested concentrations ranged from 5 µM and 500 nM. Table 1a (Comparative Compounds)

rats = test: Rodent formalin pain model (Example 3); type: in vivo; conditions: rat; for Minimal Efficacious Dose of Compound in Formalin Model: IV, statistically significant difference vs vehicle at 0 - 2 min (p≤0.05); for Duration of Pain Behavior: first two minutes after formalin, vehicle 88.6
Description: Compounds of Formula (Ia) are active in rodent models of pain induced by direct activation of the TRPA1 channel with intraplantar injection of the TRPA1 agonist formalin. Compounds of Formula (Ia) were tested in the formalin-induced pain test reported by Abbott et. al. Pain. 1995 Jan;60(1):91-102. Dubuisson et al. describe a method for assessing pain and analgesia in rats. Briefly, dilute formalin (50 µL of 3 % formalin) is injected into the plantar surface of the hind paw. […] The individual responsible for counting the pain behaviors in a particular study is blinded to the treatment groups.
Table 2 is a data table showing the results from testing compounds of Formula (Ia) in the rodent formalin-induced pain model described in […]. Rats were treated with the compounds of Formula (Ia) at various doses (0.1, 0.3, 1, 1.2, 3, 4, 10, or 30 mg/Kg IV) or with a control composition containing the vehicle (i.e., without a compound of Formula (Ia)). Pain behaviors (flinch, lift, lick, bite) were monitored following intraplantar formalin injection. Referring to Table 2, the minimum effective dose was derived from dose resulting in statistically significant difference in behavior at 0 - 2 min time period as compared with vehicle (p≤0.05).

[1] = test system: Female Sprague Dawley rats; test: Rodent acute tolerability test with liver function tests (Example 5); type: in vivo, rat; set-up: key to Alterations in LFT: (↔) indicates blood levels of markers for potential liver damage within normal range; (↑) indicates blood levels of markers for potential liver damage elevated above normal range; conditions: about 24 hours post dose
Description: Compounds of Formula (Ia) were assessed for acute tolerability in a rodent model at dose levels ranging from 100 - 200 mg/kg based upon the minimum efficacious dose of each compound. Female Sprague Dawley rats were administered up to a 10 mL/kg dose volume of each compound in 0.9% saline at appropriate concentrations as an intravenous bolus via the lateral tail vein. The animals were observed immediately post dose and for up to twenty four hours post dose and clinical observations were recorded. Additionally, approximately twenty four hours post dose animals were euthanized and blood taken for serum chemistry analysis with a focus on liver function tests (LFTs). The maximum tolerated single dose and LFT results are summarized in Table 3, where (↔) indicates blood levels of markers for potential liver damage within normal range and (↑) indicates blood levels of markers for potential liver damage elevated above normal range. Referring to the data in Table 3, LFT blood levels of markers for potential liver damage remained within normal range for the compounds of Formula (Ia), while LFTs were elevated for Comparator Compounds including 5-10 fold elevation above normal for ALT and AST blood levels observed upon administration of Comparative Compound 1. […]

[2] = Aqueous solubility in buffered solutions, HPLC (Example 2); type: physicochemical; conditions: kinetic from dmso stock, ambient temperature
sheep = test: Sheep model of experimental allergic asthma, Ascaris suum antigen challenge (Example 6); type: in vivo; conditions: for inhibition of the AHR / inhibition of the EAR / inhibition of the LAR: sheep; for Average Early Airway Response (EAR) / Average Late Airway Response (LAR) / Airway Hyperresponsiveness (AHR): 4 days; for Average Early Airway Response (EAR): average increase in RL 0-4h after challenge; for Average Late Airway Response (LAR): average increase in RL 5-8h after challenge; for Airway Hyperresponsiveness (AHR): ratio of post challenge PC400 to pre challenge PC400
Description: Compounds were tested in the sheep model of experimental asthma reported in Abraham WM, Asthma & Rhinitis, 2000: 1205-1227. All animals were tested for both early and late stage airway responses to inhalation challenge with Ascaris suum antigen.
The unsedated sheep were restrained in a cart in the prone position with their heads immobilized. After topical anesthesia of the nasal passages with 2% lidocaine solution, a balloon catheter was advanced through one nostril into the lower esophagus. The animals were intubated with a cuffed endotracheal tube through the other nostril. Pleural pressure was estimated with the esophageal balloon catheter. Lateral pressure in the trachea was measured with a sidehole catheter advanced through and positioned distal to the tip of the endotracheal tube. Transpulmonary pressure, the difference between tracheal and pleural pressure, was measured with a differential pressure transducer catheter system. For the measurement of pulmonary resistance (RL), the proximal end of the endotracheal tube was connected to a pneumotachograph. The signals of flow and transpulmonary pressure were recorded on an oscilloscope recorder, which was linked to a computer for on-line calculation of RL from transpulmonary pressure, respiratory volume (obtained by digital integration) and flow. Analysis of 5-10 breaths were used for the determination of RL in cm H2O / L x sec^-1.
Aerosols of Ascaris suum extract (diluted 20:1 with phosphate buffered saline; 82,000 PNU/ml) were generated using a disposable medical nebulizer (Raindrop^R, Puritan Bennett). The output from the nebulizer was directed into a plastic t-piece, one end of which was connected to the inspiratory port of a Harvard respirator. To better control aerosol delivery, a dosimeter consisting of a solenoid valve and a source of compressed air (20 psi) was activated at the beginning of the inspiratory cycle of the Harvard respirator system for 1 s. The aerosol was delivered at a tidal volume of 500 ml and a rate of 20 breaths per minute. Each sheep was challenged with an equivalent dose of antigen in the control and drug trials. Carbachol aerosols were also generated with this same nebulizer system.
For the carbachol concentration response curves, measurements of RL were repeated immediately after inhalation of buffer and after each administration of 10 breaths of increasing concentrations of carbachol solution (0.25%, 0.5%, 1.0%, 2.0% and 4.0% w/v). To assess airway responsiveness, the cumulative carbachol dose in breath units (BU) that increased RL 400% over the post-buffer value (i.e. PC 400) was calculated from the dose response curve. One breath unit was defined as one breath of a 1% w/v carbachol solution.
Compound 5-T was given at doses of 1, 3 and 10 mg/kg given orally once a day for 3 days and on day 4, 2 hours before antigen challenge. A group of sheep also received a vehicle control.
A pre-challenge (baseline) PC 400 was obtained 1-3 days before the start of dosing. Then on the day of antigen challenge, the sheep received the last dose of Compound 5-T 2h before antigen challenge. Values of lung resistance (RL) were measured at baseline, 1.5 h after drug treatment and, then, serially for 8h after challenge with Ascaris suum antigen. Measurements of RL were obtained 24 h after challenge followed by the 24 h post challenge determination of PC 400. Responses to antigen challenge with drug and/or vehicle treatment were compared to each animal's historical control.
Two groups of animals (n=3) were used for these studies. Group 1 received the vehicle control and the 1 mg/kg dose. Group 2 received the 3 mg/kg dose and the 10 mg/kg dose. A Repeated Measures Analysis of Variance was used to compare the responses within each group to their historical control. If a significant difference was found, then Tukey's post hoc test was used to determine pair wise differences. […]

[3] = sodium bicarbonate buffer in water for injection/5% dextrose, pH 9.0, 50 mM sodium bicarbonate, read-out: pH 9.0 aqueous solubility
[4] = sodium phosphate buffer in water for injection/5% dextrose, pH 7.4, 75 mM sodium phosphate, read-out: pH 7.4 aqueous solubility

SMILES: C[C@H]1CCCN1c1ncc(-c2cncc(N(COP(=O)(O)O)C(=O)[C@H](C)n3cnc4c3c(=O)n(C)c(=O)n4C)n2)cn1 [Compound 3-J, ((S)-2-(1,3-dimethyl-2,6-dioxo-1,2,3,6-tetrahydro-7H-purin-7-yl)-N-(6-(2-((S)-2-methylpyrrolidin-1-yl)pyrimidin-5-yl)pyrazin-2-yl)propanamido)methyl dihydrogen phosphate]
IC50 (human TRPA1): > 100 nM | Minimal Efficacious Dose of Compound in Formalin Model (rats): 3 mg/kg | Duration of Pain Behavior (rats; dose 3 mg/kg IV): 39.7 s | Duration of Pain Behavior (rats; dose 10 mg/kg IV): 1.6 s | Alterations in LFT ([1]; single IV bolus dose 130 mg/kg): ↔ | LFT: % upper normal range ALT serum levels ([1]; single IV bolus dose 130 mg/kg): <100%/<100% | LFT: % upper normal range AST serum levels ([1]; single IV bolus dose 130 mg/kg): <100%/<100% | solubility kinetic at 24 h [2, 3]: > 1000 µg/mL | solubility kinetic at 24 h [2, 4]: > 1000 µg/mL

SMILES: C[C@@H](C(=O)N(COP(=O)(O)O)c1cncc(-c2cnc(N3CCC[C@H]3C(F)(F)F)nc2)n1)n1cnc2c1c(=O)n(C)c(=O)n2C [Compound 5-S, ((S)-2-(1,3-dimethyl-2,6-dioxo-1,2,3,6-tetrahydro-7H-purin-7-yl)-N-(6-(2-((S)-2-(trifluoromethyl)pyrrolidin-1-yl)pyrimidin-5-yl)pyrazin-2-yl)propanamido)methyl dihydrogen phosphate]
IC50 (human TRPA1): > 100 nM | Minimal Efficacious Dose of Compound in Formalin Model (rats): 3 mg/kg | Duration of Pain Behavior (rats; dose 0.3 mg/kg IV): 69.8 s | Duration of Pain Behavior (rats; dose 1 mg/kg IV): 52.3 s | Duration of Pain Behavior (rats; dose 3 mg/kg IV): 8.4 s | Duration of Pain Behavior (rats; dose 10 mg/kg IV): 0 s | Alterations in LFT ([1]; single IV bolus dose 100 mg/kg): ↔ | LFT: % upper normal range ALT serum levels ([1]; single IV bolus dose 100 mg/kg): <100%/<100% | LFT: % upper normal range AST serum levels ([1]; single IV bolus dose 100 mg/kg): <100%/<100% | solubility kinetic at 24 h [2, 3]: > 1000 µg/mL | solubility kinetic at 24 h [2, 4]: > 1000 µg/mL

IC50 (human TRPA1): < 25 nM | solubility kinetic at 24 h [2, 3]: 7 µg/mL (≈ 12.9 µM) | solubility kinetic at 24 h [2, 4]: 5 µg/mL (≈ 9.18 µM)
SMILES: C[C@@H](C(=O)Nc1cncc(-c2cnc(N3CCC[C@H]3C(F)(F)F)nc2)n1)n1cnc2c1c(=O)n(C)c(=O)n2C [Compound 5-T, (S)-2-(1,3-dimethyl-2,6-dioxo-1,2,3,6-tetrahydro-7H-purin-7-yl)-N-(6-(2-((S)-2-(trifluoromethyl)pyrrolidin-1-yl)pyrimidin-5-yl)pyrazin-2-yl)propanamide]
inhibition of the AHR (sheep; 1 mg/Kg dose): 45% | inhibition of the EAR (sheep; 1 mg/Kg dose): no effect on EAR | inhibition of the LAR (sheep; 1 mg/Kg dose): 48% | Average Early Airway Response (EAR) (sheep; 1 mg/Kg orally once a day, Control 1 175 ± 25): 171 ± 17 | Average Late Airway Response (LAR) (sheep; 1 mg/Kg orally once a day, Control 1 113 ± 4): 59 ± 1*^+ | Airway Hyperresponsiveness (AHR) (sheep; 1 mg/Kg orally once a day, Control 1 0.49 ± 0.04): 0.71 ± 0.01*^+ | inhibition of the AHR (sheep; 3 mg/Kg dose): 100% | inhibition of the EAR (sheep; 3 mg/Kg dose): 51% | inhibition of the LAR (sheep; 3 mg/Kg dose): 78% | Average Early Airway Response (EAR) (sheep; 3 mg/Kg orally once a day, Control 2 195 ± 15): 95 ± 6 | Average Late Airway Response (LAR) (sheep; 3 mg/Kg orally once a day, Control 2 107 ± 5): 24 ± 1 | Airway Hyperresponsiveness (AHR) (sheep; 3 mg/Kg orally once a day, Control 2 0.41 ± 0.01): 0.92 ± 0.08 | inhibition of the AHR (sheep; 10 mg/Kg dose): 100% | inhibition of the EAR (sheep; 10 mg/Kg dose): 72% | inhibition of the LAR (sheep; 10 mg/Kg dose): 79% | Average Early Airway Response (EAR) (sheep; 10 mg/Kg orally once a day, Control 2 195 ± 15): 55 ± 2*^ | Average Late Airway Response (LAR) (sheep; 10 mg/Kg orally once a day, Control 2 107 ± 5): 22 ± 3 | Airway Hyperresponsiveness (AHR) (sheep; 10 mg/Kg orally once a day, Control 2 0.41 ± 0.01): 1.00 ± 0.14 | inhibition of the average early airway response (EAR), compared to Comparative Compound 2 (sheep; at the doses tested): improved inhibition | inhibition of the average late airway response (LAR) and the airway hyperresponsiveness (AHR) (sheep; doses 1, 3 and 10 mg/kg orally): dose dependent inhibition
